Source: BigSolDB 2.1

COc1c(C)c2c(c(O)c1C/C=C(\C)CCC(=O)OCCN1CCOCC1)C(=O)OC2
solubility (mole fraction)
Details | in DMSO | in ethanol | in ethyl acetate | in ethylene glycol | in isopropanol | in n-butanol | in propylene glycol | in transcutol | in water
298.2 K | 0.023 | 0.00613 | 0.0689 | 0.000715 | 0.00852 | 0.0108 | 0.00105 | 0.0393 | 1.75e-06
303.2 K | 0.0272 | 0.00676 | 0.0744 | 0.000858 | 0.00934 | 0.0119 | 0.00126 | 0.0421 | 2.29e-06
308.2 K | 0.0328 | 0.00749 | 0.0802 | 0.00103 | 0.0102 | 0.0132 | 0.00147 | 0.0452 | 2.87e-06
313.2 K | 0.0388 | 0.00833 | 0.0856 | 0.0012 | 0.0111 | 0.0144 | 0.00168 | 0.0486 | 3.49e-06
318.2 K | 0.0439 | 0.00906 | 0.0928 | 0.0014 | 0.0121 | 0.0159 | 0.00193 | 0.0522 | 4.16e-06

Details | solubility (mole fraction)
in PEG-400, 298.2 K | 0.0271
in PEG-400, 303.2 K | 0.0312
in PEG-400, 308.2 K | 0.0355
in PEG-400, 313.2 K | 0.0399
in PEG-400, 318.2 K | 0.0449
